Measured values as given in US20200061036A1, “ACECLIDINE ISOMERS AND SCALEMIC MIXTURES THEREOF FOR THE TREATMENT OF PRESBYOPIA” (Presbyopia Therapies, LLC, priority 2018, published 2020).

Assays:
[1] = test system: subject; test: Net gain in lines of visual acuity at 45 centimeters after binocular instillation of aceclidine enantiomer solutions (Example 1, prophetic); assay type: in vivo; details: for Net gain in lines of visual acuity versus baseline, monocularly: first figure of cell; for Net gain in lines of visual acuity versus baseline, binocularly: second figure of cell
Protocol: Solutions containing scalemic mixtures of or enantiomerically pure aceclidine in 1.50% w/v polysorbate 80, 1.2% w/v hydroxypropylmethyl cellulose, 0.1% w/v disodium ethylenediaminetetraacetic acid, 0.1% w/v sorbate in 0.9% w/v sodium chloride buffered saline at a pH of 6.5 were instilled, binocularly in a subject. The subject's visual acuity at 45 centimeters was then tested both monocularly and binocularly. Net gain in lines of visual acuity versus baseline monocularly/binocularly are shown in Table 1 below at 1, 2 and 5 hours post-instillation.

[2] = test system: accommodation; details: cited from earlier work

Compound	Net gain in lines of visual acuity versus baseline, monocularly ([1]; 1 hour post-instillation)	Net gain in lines of visual acuity versus baseline, binocularly ([1]; 1 hour post-instillation)	Net gain in lines of visual acuity versus baseline, monocularly ([1]; 2 hours post-instillation)	Net gain in lines of visual acuity versus baseline, binocularly ([1]; 2 hours post-instillation)	Net gain in lines of visual acuity versus baseline, monocularly ([1]; 5 hours post-instillation)	Net gain in lines of visual acuity versus baseline, binocularly ([1]; 5 hours post-instillation)	induced accommodation documented in presbyopes ([2]; 2% concentration, presbyopes)	induced accommodation ([2]; as little as, with a range of variability)
CC(=O)OC1CN2CCC1CC2 (centres unmarked) [50/50, aceclidine]	2.00 lines	3.00 lines	1.50 lines	2.50 lines	1.00 lines	1.50 lines	–	–
CC(=O)OC1CN2CCC1CC2 (centres unmarked) [100/0, aceclidine]	2.00 lines	3.50 lines	1.75 lines	3.00 lines	1.50 lines	2.50 lines	–	–
CC[C@@H]1C(=O)OC[C@@H]1Cc1cncn1C [Pilocarpine, pilocarpine]	–	–	–	–	–	–	≥ −5 D	–
CC(=O)OC1CN2CCC1CC2 (centres unmarked) [aceclidine]	–	–	–	–	–	–	–	−0.37 D
aceclidine [25/75]	1.50/1.50 lines	1.50/1.50 lines	0.75 lines	1.25 lines	0.50 lines	1.00 lines	–	–
aceclidine [62.5/22.5]	1.40 lines	3.20 lines	1.70 lines	2.70 lines	1.20 lines	1.60 lines	–	–
aceclidine [75/25]	1.50 lines	2.50 lines	1.20 lines	2.80 lines	0.70 lines	2.00 lines	–	–
aceclidine [87.5/12.5]	1.75 lines	3.25 lines	1.40 lines	2.90 lines	0.90 lines	2.25 lines	–	–
